pIC50: −log10 of the molar value. Where two headings read alike, the source gives them in different places.
Key:
[1] = molecular target: SHP-2 enzyme (Met1-Leu525) (Homo sapiens (Human), UniProt Q06124); test: SHP2 inhibition enzymatic assay; assay type: biochemical; details: read-out: SHP2wt-IC50
Procedure, shortened: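 Compounds were preincubated 30 min with 0.5 nM SHP-2 (Met1-Leu525) plus 500 nM IRS1 activating peptide (pH 7.2 HEPES, 5 mM DTT), then 75 μM DiFMUP substrate reacted 30 min at room temperature. After bpV quench, DiFMUP fluorescence gave % inhibition; four-parameter logistic fit yielded IC50.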

[2] = tested on: ERK phosphorylation in KYSE-520 cells; test: Phospho-ERK cellular assay; assay type: cell-based; details: Homo sapiens, KYSE-520 cells, 2 h at 37° C., phospho-ERK1/2 (Thr202/Tyr204) TR-FRET, read-out: PERK IC50
Procedure, shortened: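 TR-FRET read-out of ERK1/2 Thr202/Tyr204 phosphorylation was taken after overnight antibody incubation at room temperature. Before that, KYSE-520 cells were treated 2 h at 37 °C with compound dilutions and lysed 30 min. Percent inhibition relative to vehicle and cell-free wells was fitted four-parametrically to give IC50.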

[3] = 0.5 nM SHP-2 activated by 500 nM IRS1 peptide, 75 μM DiFMUP substrate

Chain of SHP-2 enzyme (Met1-Leu525) (Q06124 1-525): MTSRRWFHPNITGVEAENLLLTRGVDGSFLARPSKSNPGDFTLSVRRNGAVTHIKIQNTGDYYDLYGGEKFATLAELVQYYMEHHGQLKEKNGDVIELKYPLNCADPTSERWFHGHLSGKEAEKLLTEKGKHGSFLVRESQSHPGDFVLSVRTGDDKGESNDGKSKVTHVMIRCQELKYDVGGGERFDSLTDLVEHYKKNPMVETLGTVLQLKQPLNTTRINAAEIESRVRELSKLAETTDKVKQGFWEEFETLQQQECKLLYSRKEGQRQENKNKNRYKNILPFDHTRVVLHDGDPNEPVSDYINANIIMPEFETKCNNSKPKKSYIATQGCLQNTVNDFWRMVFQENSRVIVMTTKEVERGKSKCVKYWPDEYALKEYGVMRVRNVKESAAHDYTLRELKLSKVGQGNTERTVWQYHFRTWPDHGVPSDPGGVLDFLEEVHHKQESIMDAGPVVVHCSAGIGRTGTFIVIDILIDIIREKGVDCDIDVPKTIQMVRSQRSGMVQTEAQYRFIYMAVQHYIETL

SMILES | pIC50 [1, 3] | pIC50 ([2]; KYSE-520, 2 h) | pIC50 [1] | pIC50 [2]
NCC1(c2ccccn2)C2CCN(c3nc4nc(Sc5cccnc5C(F)(F)F)cnc4[nH]3)CC21 (stereo not drawn) [Example 65, (7-(pyridin-2-yl)-3-(5-((2-(trifluoromethyl)pyridin-3-yl)thio)-1H-imidazo[4,5-b]pyrazin-2-yl)-3-azabicyclo[4.1.0]heptan-7-yl)methanamine] | > 6.30 | 5.30 to 6.00 | – | –
Cc1cc([C@@]2(CN)[C@@H]3CCN(c4cnc5c(-c6ccnc7ccc(Cl)cc67)n[nH]c5n4)C[C@@H]32)no1 [Example 42, ((1S,6R,7S)-3-(3-(6-chloroquinolin-4-yl)-1H-pyrazolo[3,4-b]pyrazin-6-yl)-7-(5-methylisoxazol-3-yl)-3-azabicyclo[4.1.0]heptan-7-yl)methanamine] | 5.52 to 6.30 | 5.30 to 6.00 | – | –
NCC1C2CCN(c3cnc(Sc4cccnc4C(F)(F)F)c(N)n3)CC12 (stereo not drawn) [Example 75, 6-(7-(aminomethyl)-3-azabicyclo[4.1.0]heptan-3-yl)-3-((2-(trifluoromethyl)pyridin-3-yl)thio)pyrazin-2-amine] | > 6.30 | < 5.30 | – | –
NC[C@]1(c2ccccc2F)[C@@H]2CCN(c3cnc4nc(-c5ccnc(-n6cccn6)c5)ccc4n3)C[C@@H]21 [Example 530, ((1S,6R,7R)-3-(6-(2-(1H-pyrazol-1-yl)pyridin-4-yl)pyrido[2,3-b]pyrazin-2-yl)-7-(2-fluorophenyl)-3-azabicyclo[4.1.0]heptan-7-yl)methanamine] | > 6.30 | < 5.30 | – | –
NC[C@]1(c2ccccc2Cl)[C@@H]2CCN(c3cnc4c(-c5ccnc(N)c5Cl)n[nH]c4n3)C[C@@H]21 [Example 181, 4-(6-((1S,6R,7R)-7-(aminomethyl)-7-(2-chlorophenyl)-3-azabicyclo[4.1.0]heptan-3-yl)-1H-pyrazolo[3,4-b]pyrazin-3-yl)-3-chloropyridin-2-amine] | > 6.30 | > 6.00 | – | –
NC[C@]1(c2ccccc2F)[C@@H]2CCN(c3cnc4c(-c5ccc6c(c5)NC(=O)CC6)n[nH]c4n3)C[C@@H]21 [Example 230, 7-(6-((1S,6R,7R)-7-(aminomethyl)-7-(2-fluorophenyl)-3-azabicyclo[4.1.0]heptan-3-yl)-1H-pyrazolo[3,4-b]pyrazin-3-yl)-3,4-dihydroquinolin-2(1H)-one] | > 6.30 | > 6.00 | – | –
NCC1(c2ccccc2)C2CCN(c3nc4nc(Sc5cccnc5C(F)(F)F)cnc4[nH]3)CC21 (stereo not drawn) [Example 63, (7-phenyl-3-(5-((2-(trifluoromethyl)pyridin-3-yl)thio)-1H-imidazo[4,5-b]pyrazin-2-yl)-3-azabicyclo[4.1.0]heptan-7-yl)methanamine] | – | – | > 6.30 | 5.30 to 6.00
Cn1cnc2ccc(-c3ccc4nc(N5CC[C@@H]6[C@H](C5)[C@@]6(CN)c5ccccc5F)cnc4n3)cc21 [Example 436, ((1S,6R,7R)-7-(2-fluorophenyl)-3-(6-(1-methyl-1H-benzo[d]imidazol-6-yl)pyrido[2,3-b]pyrazin-2-yl)-3-azabicyclo[4.1.0]heptan-7-yl)methanamine] | > 6.30 | > 6.00 | – | –

Continued, in another order:

pIC50 [1, 3] | pIC50 ([2]; KYSE-520, 2 h) | SMILES | pIC50 [1] | pIC50 [2]
> 6.30 | > 6.00 | CC1(C)C(=O)Nc2ccc(-c3n[nH]c4nc(N5CC[C@@H]6[C@H](C5)[C@@]6(CN)c5ccccc5F)cnc34)cc21 [Example 206, 5-(6-((1S,6R,7R)-7-(aminomethyl)-7-(2-fluorophenyl)-3-azabicyclo[4.1.0]heptan-3-yl)-1H-pyrazolo[3,4-b]pyrazin-3-yl)-3,3-dimethylindolin-2-one] | – | –
> 6.30 | > 6.00 | NCC1(c2nc(Cl)cs2)C2CCN(c3cnc4c(-c5ccc(F)c6ncccc56)n[nH]c4n3)CC21 (stereo not drawn) [Example 446, (7-(4-chlorothiazol-2-yl)-3-(3-(8-fluoroquinolin-5-yl)-1H-pyrazolo[3,4-b]pyrazin-6-yl)-3-azabicyclo[4.1.0]heptan-7-yl)methanamine] | – | –
> 6.30 | < 5.30 | NC[C@]1(c2ccccc2F)[C@@H]2CCN(c3cnc4c(-c5ccc6cc(Cl)cnc6c5)n[nH]c4n3)C[C@@H]21 [Example 255, ((1S,6R,7R)-3-(3-(3-chloroquinolin-7-yl)-1H-pyrazolo[3,4-b]pyrazin-6-yl)-7-(2-fluorophenyl)-3-azabicyclo[4.1.0]heptan-7-yl)methanamine] | – | –
> 6.30 | < 5.30 | NC[C@]1(c2ccccc2F)[C@@H]2CCN(c3cnc4c(-c5ccc(O)nc5C(F)(F)F)n[nH]c4n3)C[C@@H]21 [Example 345, 5-(6-((1S,6R,7R)-7-(aminomethyl)-7-(2-fluorophenyl)-3-azabicyclo[4.1.0]heptan-3-yl)-1H-pyrazolo[3,4-b]pyrazin-3-yl)-6-(trifluoromethyl)pyridin-2-ol] | – | –
> 6.30 | > 6.00 | NC[C@]1(c2ccccc2F)[C@@H]2CCN(c3cnc4c(-c5ccnc(N)c5Cl)n[nH]c4n3)C[C@@H]21 [Example 105, 4-(6-((1S,6R,7R)-7-(aminomethyl)-7-(2-fluorophenyl)-3-azabicyclo[4.1.0]heptan-3-yl)-1H-pyrazolo[3,4-b]pyrazin-3-yl)-3-chloropyridin-2-amine] | – | –
> 6.30 | > 6.00 | NC[C@]1(c2ccccc2F)[C@@H]2CCN(c3cnc4c(-c5ccnc(-n6cccn6)c5Cl)n[nH]c4n3)C[C@@H]21 [Example 451, ((1S,6R,7R)-3-(3-(3-chloro-2-(1H-pyrazol-1-yl)pyridin-4-yl)-1H-pyrazolo[3,4-b]pyrazin-6-yl)-7-(2-fluorophenyl)-3-azabicyclo[4.1.0]heptan-7-yl)methanamine] | – | –
> 6.30 | > 6.00 | COC(C)c1ccc(-c2n[nH]c3nc(N4CC[C@@H]5[C@H](C4)[C@@]5(CN)c4ccccc4F)cnc23)c2cccnc12 (stereo partly drawn) [Example 165, ((1S,6R,7R)-7-(2-fluorophenyl)-3-(3-(8-(1-methoxyethyl)quinolin-5-yl)-1H-pyrazolo[3,4-b]pyrazin-6-yl)-3-azabicyclo[4.1.0]heptan-7-yl)methanamine] | – | –
> 6.30 | > 6.00 | NC[C@]1(c2ccccc2F)[C@@H]2CCN(c3cnc4c(-c5ccc6c(c5)NC(=O)C6)n[nH]c4n3)C[C@@H]21 [Example 233, 6-(6-((1S,6R,7R)-7-(aminomethyl)-7-(2-fluorophenyl)-3-azabicyclo[4.1.0]heptan-3-yl)-1H-pyrazolo[3,4-b]pyrazin-3-yl)indolin-2-one] | – | –
> 6.30 | > 6.00 | NC[C@]1(c2ccccc2F)[C@@H]2CCN(c3cnc4c(-c5ccnc(-c6ncco6)c5Cl)n[nH]c4n3)C[C@@H]21 [Example 170, ((1S,6R,7R)-3-(3-(3-chloro-2-(oxazol-2-yl)pyridin-4-yl)-1H-pyrazolo[3,4-b]pyrazin-6-yl)-7-(2-fluorophenyl)-3-azabicyclo[4.1.0]heptan-7-yl)methanamine] | – | –
> 6.30 | > 6.00 | NC[C@]1(c2ccccc2F)[C@@H]2CCN(c3cnc4c(-c5cc6cc[nH]c(=O)c6cc5Cl)n[nH]c4n3)C[C@@H]21 [Example 370, 6-(6-((1S,6R,7R)-7-(aminomethyl)-7-(2-fluorophenyl)-3-azabicyclo[4.1.0]heptan-3-yl)-1H-pyrazolo[3,4-b]pyrazin-3-yl)-7-chloroisoquinolin-1(2H)-one] | – | –
